Assay results: PubChem BioAssay AID2060599 (Molecular Pharmacology Branch, DTP, NCI, 2025)
Several values for one entry are separate records, joined by “and”; a condition that tells them apart may be missing. Equal entries are not always repeated.

Tested on: 817829-284-R-J1-PDC complex spheroids, viability
Assay: Anticancer human tumor 817829-284-R-J1-PDC patient-derived colon adenocarcinoma cell line growth inhibition [CLK]
Details: for viability, T/C: stronger effect = lower value
From the text: A high-throughput screen of multi-cell type tumor spheroids was designed to identify active combinations of […] and targeted small molecules. Complex spheroids include a stromal component modeled by human endothelial cells (HUVEC) and fibroblasts modeled by human mesenchymal stem cells (MSCs). The concentration ranges selected for each drug and investigational agent were based upon clinically achievable concentrations if the clinical Cmax of the agent was known.
Compounds. The drugs and investigational agents: cirtuvivint (SM08502; NSC835563), CC-671 (NSC850746), vemurafenib (NSC761431), tapotoclax (NSC804041), sotorasib (NSC818433), adagrasib (NSC831453), MRTX-1133 (NSC836407), BAY2416964 (NSC825713), copanlisib (NSC816437), inavolisib (NSC800729), abemaciclib (NSC768073), osimertinib (NSC779217), entinostat (NSC756642), eltanexor (KPT-8602, NSC794443), venetoclax (NSC766270), ceralasertib (NSC777638), bortezomib (NSC756655), olaparib (NSC753686), talazoparib (NSC767125), alisertib (NSC759677), peposertib (NSC802822), gemcitabine (NSC613327), 5-fluorouracil (NSC19893), SN-38 (NSC673596), oxaliplatin (NSC266046), paclitaxel (NSC125973), and doxorubicin (NSC123127), were obtained from the National Cancer Institute (NCI) Developmental Therapeutics Program Chemical Repository. The FDA-approved anticancer drug set is available from the Developmental Therapeutics Program at https://dtp.cancer.gov/organization/dscb/obtaining/available plates.htm. […] The stock solutions were prepared in dimethyl sulfoxide (DMSO, Sigma-Aldrich, St. Louis, MO, cat. D2650), except for the platinum complexes which were prepared in saline (Quality Biological, Gaithersburg, MD, cat. 114-055-101), at 800-fold the tested concentration and stored at -70 degrees C prior to their use. All drugs and investigational agents were tested over a range starting from a high concentration at or near the clinical Cmax and decreasing in half-log increments. If the clinical Cmax for an agent had not been determined, the highest concentration tested was 10 microM.
Cell Culture. All cells were maintained in an incubator at 37 degrees C and 5% CO2 with 95% humidity. The PDC lines were cultured according to standard operating procedures established by the NCI PDMR. Briefly, all PDCs were thawed and cultured in Matrigel-coated flasks prepared with a working solution of 1X Ham's F-12 nutrient mix, without supplementation (Invitrogen, Waltham, MA, cat. 11765054), 100 U/mL penicillin-streptomycin (Invitrogen, cat. 15140122), and 2.5% Matrigel (Corning Inc., Corning, NY, cat. 354248) for the first three passages. The 947758-054-R-J2-PDC line was cultured in 6B/Colon 1A media, which includes advanced DMEM/F-12 (Thermo Fisher Scientific, cat. 12634028), 10 mM HEPES (Thermo Fisher Scientific, cat. 15630080), 1X GlutaMAX supplement (Thermo Fisher Scientific, cat. 35050061), 0.1 mg/mL primocin (InvivoGen, cat. ant-pm-2), 10% defined fetal bovine serum, heat inactivated (HyClone Laboratories Inc., cat. SH30070.03HI), 1.25 mM N-Acetyl-L-cysteine (Sigma-Aldrich, cat. A9165), 10 mM nicotinamide (Sigma-Aldrich, cat. N0636), 1X B-27 supplement (Thermo Fisher Scientific, cat. 17504044), 1X N-2 supplement (Thermo Fisher Scientific, cat. 17502048), and 10 microM Y-27632 dihydrochloride (Tocris Bioscience, cat. 1254). The 876862-298-R-J1-PDC was cultured in 6E media, which includes all 6B/Colon 1A media components plus 50% L-WRN conditioned media (ATCC, cat. CRL-3276), 50 ng/mL recombinant human EGF recombinant protein (hEGF; Thermo Fisher Scientific, cat. PHG0311), 10 ng/mL recombinant human fibroblast growth factor 10 (hGFG-10; PeproTech, cat. 100-26), 1 ng/mL recombinant human fibroblast growth factor 2 (hFGF-2; PeproTech, cat. 100-18B), and 1 µM prostaglandin E2 (PGE2; Tocris, cat. 2296). The 227483-062-R1-J1-PDC line was cultured in Panc media, containing all 6E components except hFGF-2, with the addition of 500 nM SB-431542 (Selleckchem, cat. S1067) and 10 nM gastrin (Tocris, cat. 3006). […]
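Note: spheroids exposed to the agents for seven days before readout.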

Nc1ccn(C2OC(CO)C(O)C2(F)F)c(=O)n1 (stereo not drawn)
viability, T/C (compound 0.0316 µM): 4.87% and 7.45%
viability, T/C (compound 0.1 µM): 5.51% and 7.25%
viability, T/C (compound 0.316 µM): 4.21% and 7.26%
viability, T/C (compound 1 µM): 3.92% and 6.91%
viability, T/C (compound 3.16 µM): 3.8% and 5.67%
viability, T/C (compound 10 µM): 2.53% and 4.69%
IC50 (curve of compound): < 31.6 nM

O=C(c1cc(Cc2n[nH]c(=O)c3ccccc23)ccc1F)N1CCN(C(=O)C2CC2)CC1
viability, T/C (compound 0.0316 µM): 87.7% and 101%
viability, T/C (compound 0.1 µM): 89% and 107%
viability, T/C (compound 0.316 µM): 81.1% and 74.2%
viability, T/C (compound 1 µM): 70.4% and 86.8%
viability, T/C (compound 3.16 µM): 52.5% and 54%
viability, T/C (compound 10 µM): 34.7% and 36.2%
IC50 (curve of compound): 3680 nM and 4810 nM

O=c1[nH]cc(F)c(=O)[nH]1
viability, T/C (compound 0.0316 µM): 66% and 85.8%
viability, T/C (compound 0.1 µM): 74.9% and 79.8%
viability, T/C (compound 0.316 µM): 98.9% and 85%
viability, T/C (compound 1 µM): 67.1% and 46.5%
viability, T/C (compound 3.16 µM): 63.9% and 53.2%
viability, T/C (compound 10 µM): 39.6% and 38%
IC50 (curve of compound): 5960 nM and 898 nM

CCCS(=O)(=O)Nc1ccc(F)c(C(=O)c2c[nH]c3ncc(-c4ccc(Cl)cc4)cc23)c1F + CN1CCN(c2cc(C(=O)Nc3cc4cc(-c5cnn(C)c5)ccc4cn3)ccn2)CC1
IC50 (curve of first compound, second compound 0.0316 µM): < 31.6 nM
IC50 (curve of first compound, second compound 0.1 µM): < 31.6 nM
IC50 (curve of first compound, second compound 0.316 µM): < 31.6 nM
IC50 (curve of first compound, second compound 1 µM): < 31.6 nM
IC50 (curve of first compound, second compound 3.16 µM): < 31.6 nM
IC50 (curve of first compound, second compound 10 µM): < 31.6 nM
viability, T/C (second compound 0.0316 µM, first compound 0.0316 µM): 53.5%
viability, T/C (second compound 0.0316 µM, first compound 0.1 µM): 41.8%
viability, T/C (second compound 0.0316 µM, first compound 0.316 µM): 39.8%
viability, T/C (second compound 0.0316 µM, first compound 1 µM): 43.8%
viability, T/C (second compound 0.0316 µM, first compound 3.16 µM): 35.6%
viability, T/C (second compound 0.0316 µM, first compound 10 µM): 18.4%
viability, T/C (second compound 0.1 µM, first compound 0.0316 µM): 19%
viability, T/C (second compound 0.1 µM, first compound 0.1 µM): 17.5%
viability, T/C (second compound 0.1 µM, first compound 0.316 µM): 14.2%
viability, T/C (second compound 0.1 µM, first compound 1 µM): 11.8%
viability, T/C (second compound 0.1 µM, first compound 3.16 µM): 12.2%
viability, T/C (second compound 0.1 µM, first compound 10 µM): 3.08%
viability, T/C (second compound 0.316 µM, first compound 0.0316 µM): 1.39%
viability, T/C (second compound 0.316 µM, first compound 0.1 µM): 1.67%
viability, T/C (second compound 0.316 µM, first compound 0.316 µM): 1.88%
viability, T/C (second compound 0.316 µM, first compound 1 µM): 1.17%
viability, T/C (second compound 0.316 µM, first compound 3.16 µM): 1.2%
viability, T/C (second compound 0.316 µM, first compound 10 µM): 0.66%
viability, T/C (second compound 1 µM, first compound 0.0316 µM): 0.09%
viability, T/C (second compound 1 µM, first compound 0.1 µM): 0.11%
viability, T/C (second compound 1 µM, first compound 0.316 µM): 0.15%
viability, T/C (second compound 1 µM, first compound 1 µM): 0.09%
viability, T/C (second compound 1 µM, first compound 3.16 µM): 0.09%
viability, T/C (second compound 1 µM, first compound 10 µM): 0.08%
viability, T/C (second compound 3.16 µM, first compound 0.0316 µM): 0.09%
viability, T/C (second compound 3.16 µM, first compound 0.1 µM): 0.18%
viability, T/C (second compound 3.16 µM, first compound 0.316 µM): 0.1%
viability, T/C (second compound 3.16 µM, first compound 1 µM): 0.2%
viability, T/C (second compound 3.16 µM, first compound 3.16 µM): 0.13%
viability, T/C (second compound 3.16 µM, first compound 10 µM): 0.09%
viability, T/C (second compound 10 µM, first compound 0.0316 µM): 0.06%
viability, T/C (second compound 10 µM, first compound 0.1 µM): 0.08%
viability, T/C (second compound 10 µM, first compound 0.316 µM): 0.1%
viability, T/C (second compound 10 µM, first compound 1 µM): 0.18%
viability, T/C (second compound 10 µM, first compound 3.16 µM): 0.21%
viability, T/C (second compound 10 µM, first compound 10 µM): 0.17%
